This is an account of results in ChEMBL document CHEMBL1914389, “Steroidal C-21 mercapto derivatives as dissociated steroids: discovery of an inhaled dissociated steroid” (Bioorg Med Chem Lett, 2011).

Series [1] deals with T1, Glucocorticoid receptor (Rattus norvegicus) (UniProt P06536).
T1 sequence (whole entry): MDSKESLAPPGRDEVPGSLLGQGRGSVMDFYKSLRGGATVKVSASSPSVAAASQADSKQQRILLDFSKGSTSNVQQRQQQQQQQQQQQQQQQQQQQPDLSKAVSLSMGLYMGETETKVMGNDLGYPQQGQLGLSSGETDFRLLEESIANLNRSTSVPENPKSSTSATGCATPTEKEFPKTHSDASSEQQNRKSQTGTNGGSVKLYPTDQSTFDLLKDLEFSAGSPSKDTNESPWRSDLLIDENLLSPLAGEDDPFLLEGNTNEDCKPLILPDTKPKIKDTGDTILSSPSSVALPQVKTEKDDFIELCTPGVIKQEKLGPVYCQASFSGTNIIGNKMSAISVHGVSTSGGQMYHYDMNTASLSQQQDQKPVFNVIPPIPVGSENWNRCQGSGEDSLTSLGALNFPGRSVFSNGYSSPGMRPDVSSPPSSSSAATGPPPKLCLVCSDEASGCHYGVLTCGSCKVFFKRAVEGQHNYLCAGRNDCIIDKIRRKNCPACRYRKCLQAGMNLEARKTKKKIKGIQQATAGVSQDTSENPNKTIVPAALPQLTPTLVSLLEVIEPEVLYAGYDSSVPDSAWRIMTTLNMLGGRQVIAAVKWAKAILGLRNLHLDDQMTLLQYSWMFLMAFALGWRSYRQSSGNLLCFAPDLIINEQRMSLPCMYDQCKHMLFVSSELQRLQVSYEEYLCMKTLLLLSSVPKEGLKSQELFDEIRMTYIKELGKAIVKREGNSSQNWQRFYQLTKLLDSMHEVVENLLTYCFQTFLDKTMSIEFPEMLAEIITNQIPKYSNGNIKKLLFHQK
The series can be described thus: Transactivation activity at glucocorticoid receptor in rat H4II-E cells assessed as induction of tyrosine amino transferase at 1 uM relative to control. The series is classed as cell-based.

In series [2] the target is T2, Glucocorticoid receptor (Homo sapiens, UniProt P04150).
T2 sequence (P04150 whole entry): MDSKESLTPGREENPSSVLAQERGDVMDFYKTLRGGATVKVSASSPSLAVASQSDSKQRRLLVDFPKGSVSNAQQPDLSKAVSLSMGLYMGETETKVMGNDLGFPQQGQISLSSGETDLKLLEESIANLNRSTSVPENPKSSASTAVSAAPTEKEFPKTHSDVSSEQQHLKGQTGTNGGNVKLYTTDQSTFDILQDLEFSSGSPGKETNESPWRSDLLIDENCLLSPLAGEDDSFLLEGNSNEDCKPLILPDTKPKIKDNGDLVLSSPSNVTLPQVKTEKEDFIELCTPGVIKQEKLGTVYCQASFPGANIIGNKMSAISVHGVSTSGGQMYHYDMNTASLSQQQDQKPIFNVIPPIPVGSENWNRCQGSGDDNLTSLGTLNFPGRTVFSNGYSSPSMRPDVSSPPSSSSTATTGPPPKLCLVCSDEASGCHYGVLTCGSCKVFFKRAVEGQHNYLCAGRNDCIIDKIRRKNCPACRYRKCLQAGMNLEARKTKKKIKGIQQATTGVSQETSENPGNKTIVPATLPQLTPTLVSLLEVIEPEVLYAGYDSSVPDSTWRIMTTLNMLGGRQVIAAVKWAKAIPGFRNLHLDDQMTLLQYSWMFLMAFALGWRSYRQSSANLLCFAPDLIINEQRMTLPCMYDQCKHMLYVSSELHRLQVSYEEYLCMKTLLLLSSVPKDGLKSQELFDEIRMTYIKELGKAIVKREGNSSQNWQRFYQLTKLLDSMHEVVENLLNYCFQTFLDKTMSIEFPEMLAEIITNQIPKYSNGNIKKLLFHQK
The series is described as follows: Transrepression activity at glucocorticoid receptor in human H292 cells assessed as inhibition of TNF-stimulated IL-6 cytokine synthesis. The series is classed as cell-based.

Series [3] deals with T3, Glucocorticoid receptor (Homo sapiens) (UniProt P04150).
T3 sequence (whole entry): T2 sequence (P04150 whole entry)
The series is described as follows: Transactivation activity at glucocorticoid receptor in human HepG2 cells expressing luciferase-taggged GRE gene at 1 uM by luciferase reporter gene assay relative to control. It counts as cell-based. A general note: A reporter such as luciferase makes a cellular process visible.

Series [4] deals with T2, Glucocorticoid receptor. The series can be described thus: Inhibition of human glucocorticoid receptor.
Series [5] has as its target T3, Glucocorticoid receptor (Homo sapiens). The series is described as follows: Transrepression activity at glucocorticoid receptor in human H292 cells assessed as inhibition of TNF-stimulated IL-6 cytokine synthesis at 1 uM relative to control. The series is classed as cell-based.
The target of series [6] is T2, Glucocorticoid receptor. The series is described as follows: Transactivation activity at glucocorticoid receptor in human HepG2 cells expressing luciferase-taggged GRE gene by luciferase reporter gene assay. The series is classed as cell-based.
Series [7] deals with T4, Glucocorticoid receptor (Rattus norvegicus, UniProt P06536).
T4 sequence (P06536 whole entry): T1 sequence (whole entry)
The series is described as follows: Transactivation activity at glucocorticoid receptor in rat H4II-E cells assessed as induction of tyrosine amino transferase. The series is classed as cell-based.

Series [8] has as its target T3, Glucocorticoid receptor (Homo sapiens). The series can be described thus: Transactivation activity at glucocorticoid receptor in human HepG2 cells assessed as induction of tyrosine amino transferase at 1 uM relative to control. It counts as cell-based.
The target of series [9] is T2, Glucocorticoid receptor. The series can be described thus: Transactivation activity at glucocorticoid receptor in human HepG2 cells assessed as induction of tyrosine amino transferase. It counts as cell-based.
Series [10] in a line: Therapeutic index, ratio of ED20 for thymolysis to ED70 for forced vital capacity in ovalbumin-challenged Brown-Norway rat. Conditions: in vivo, read-out: TI. It counts as organism-based.

By Emax is commonly meant the greatest response seen or fitted, relative to the assay's reference. What is called IC50 is the point on the concentration scale where inhibition reaches its midpoint. For orientation: EC50 means the concentration that produces a half-maximal response. On to `C[C@@H]1C[C@H]2[C@@H]3CCC4=CC(=O)C=C[C@]4(C)[C@@]3(Cl)[C@@H](O)C[C@]2(C)[C@@]1(O)C(=O)CSc1nc2ccccc2s1`, for which the Emax was 29% in [1], 60% in [3] and 88% in series [5]. Besides, the IC50 at Glucocorticoid receptor [2] is 4.95 nM; at Glucocorticoid receptor [4] it was 17 nM. Further, the EC50 at Glucocorticoid receptor [6] was 50 nM.

Regarding `C[C@@H]1C[C@H]2[C@@H]3C[C@H](F)C4=CC(=O)C=C[C@]4(C)[C@@]3(F)[C@@H](O)C[C@]2(C)[C@@]1(O)C(=O)CSc1nc2ccccc2s1`, the Emax was 79% in series [1], 66% in [3] and 100% in series [5]. The IC50 at Glucocorticoid receptor [2] was found to be 1.9 nM; at Glucocorticoid receptor [4] it was 13 nM. Also, the EC50 was 27 nM at Glucocorticoid receptor [7] and 17 nM at Glucocorticoid receptor [6].

Regarding `C[C@]12CCC(=O)C=C1CC[C@@H]1[C@@H]2[C@@H](O)C[C@@]2(C)[C@H]1CC[C@]2(OC(=O)c1ccco1)C(=O)CSc1cnc2ccccc2n1`, the Emax was determined as 9% in series [1], 41% in [8] and 98% in [5]. In addition, the IC50 at Glucocorticoid receptor [2] was determined as 1.4 nM.

As to `C[C@@H]1C[C@H]2[C@@H]3CCC4=CC(=O)C=C[C@]4(C)[C@@]3(F)[C@@H](O)C[C@]2(C)[C@@]1(O)C(=O)CSc1nc2ccccc2s1`, the Emax turned out to be 33% in [1], 68% in series [3] and 98% in [5]. Further, the IC50 at Glucocorticoid receptor [2] turned out to be 4.4 nM; at Glucocorticoid receptor [4] it was 18 nM. Besides, the midpoint of the response on Glucocorticoid receptor [6], the EC50, lay at 45.5 nM.

Turning to `C[C@]12CCC(=O)C=C1CC[C@@H]1[C@@H]2[C@@H](O)C[C@@]2(C)[C@H]1CC[C@]2(OC(=O)c1ccco1)C(=O)CSc1nccc2ccccc12`, the Emax in series [1] is 4%; in series [8], 33%; in series [5] it was 86%. Further, at Glucocorticoid receptor [2], the IC50 was determined as 15.9 nM.

Turning to `C[C@]12C=CC(=O)C=C1CC[C@@H]1[C@@H]2[C@@H](O)C[C@@]2(C)[C@H]1CC[C@]2(O)C(=O)CSc1nc2ccccc2s1`, the Emax in series [1] was determined as 19%; in series [3], 29%; in series [5], 78%. Moreover, the IC50 on Glucocorticoid receptor [2] was 35 nM; against Glucocorticoid receptor [4] it was 3.8 nM.

With `C[C@]12C=CC(=O)C=C1CC[C@@H]1[C@@H]2[C@@H](O)C[C@@]2(C)[C@H]1CC[C@]2(OC(=O)c1ccco1)C(=O)CSc1nccc2ccccc12`, the Emax in series [1] was 32%; in [3], 73%; in [8], 24%; in series [5], 96%. Moreover, on Glucocorticoid receptor [2], the IC50 came out at 2.1 nM. Also, the EC50 at Glucocorticoid receptor [6] is 17.3 nM.

Take `Cn1c(SCC(=O)[C@@]2(OC(=O)c3ccco3)CC[C@H]3[C@@H]4CCC5=CC(=O)CC[C@]5(C)[C@H]4[C@@H](O)C[C@@]32C)nc2ccccc21`: the maximal effect (Emax) worked out at 17% in [1], 39% in series [8] and 98% in series [5]. At Glucocorticoid receptor [2], the IC50 worked out at 3.7 nM.

Regarding `C[C@]12CCC(=O)C=C1CC[C@@H]1[C@@H]2[C@@H](O)C[C@@]2(C)[C@H]1CC[C@]2(OC(=O)c1ccco1)C(=O)CSc1nc2ccccc2o1`, the Emax in [1] was 9%; in series [8] it was 53%; in series [5], 97%. Also, the IC50 at Glucocorticoid receptor [2] was 2.2 nM. Besides, the EC50 on Glucocorticoid receptor [9] worked out at 55.6 nM.

For `C[C@]12C=CC(=O)C=C1CC[C@@H]1[C@@H]2[C@@H](O)C[C@@]2(C)[C@H]1CC[C@]2(OC(=O)c1ccco1)C(=O)CSc1nc2ccccc2s1`, the Emax in [1] was determined as 62%; in series [3], 93%; in [8], 43%; in [5] it was 99%. Besides, the IC50 at Glucocorticoid receptor [2] came to 0.75 nM. The EC50 on Glucocorticoid receptor [7] was found to be 18.7 nM; at Glucocorticoid receptor [9], 50.8 nM; at Glucocorticoid receptor [6], 14.1 nM.

Regarding `C[C@]12CCC(=O)C=C1CC[C@@H]1[C@@H]2[C@@H](O)C[C@@]2(C)[C@H]1CC[C@]2(OC(=O)c1ccco1)C(=O)CSc1ncccn1`, the results for the Emax in series [1], in series [8] and in series [5] were 7%, 35% and 94%, respectively. The IC50 on Glucocorticoid receptor [2] stood at 9.7 nM.

In the case of `Cc1nc(SCC(=O)[C@@]2(OC(=O)c3ccco3)CC[C@H]3[C@@H]4CCC5=CC(=O)CC[C@]5(C)[C@H]4[C@@H](O)C[C@@]32C)sc1C`, the Emax is 12% in series [1], 57% in series [8] and 100% in [5]. Moreover, the IC50 at Glucocorticoid receptor [2] is 0.9 nM. Further, the EC50 at Glucocorticoid receptor [9] came out at 22.4 nM.

Turning to `CCC(=O)OCC(=O)[C@@]1(OC(=O)CC)[C@@H](C)C[C@H]2[C@@H]3CCC4=CC(=O)C=C[C@]4(C)[C@@]3(Cl)[C@@H](O)C[C@@]21C` [BECLOMETHASONE DIPROPIONATE], the selectivity ratio in series [10] turned out to be 1.

`C[C@]12CCC(=O)C=C1CC[C@@H]1[C@@H]2[C@@H](O)C[C@@]2(C)[C@H]1CC[C@]2(OC(=O)c1ccco1)C(=O)CSc1ccc2ccccc2n1`: the Emax in series [1] is 11%; in series [8], 22%; in series [5], 96%. Further, on Glucocorticoid receptor [2], the IC50 is 2.85 nM.

In the case of `C[C@]12CCC(=O)C=C1CC[C@@H]1[C@@H]2[C@@H](O)C[C@@]2(C)[C@H]1CC[C@]2(OC(=O)c1ccco1)C(=O)CSc1nc2ncccc2s1`, the Emax worked out at 2% in series [1], 15% in [8] and 94% in series [5]. In addition, the IC50 on Glucocorticoid receptor [2] is 14.3 nM.

For `CCCC1O[C@@H]2C[C@H]3[C@@H]4CCC5=CC(=O)C=C[C@]5(C)[C@H]4[C@@H](O)C[C@]3(C)[C@]2(C(=O)CO)O1` (some centres not stated) [BUDESONIDE], the selectivity ratio in [10] is 1.

Consider `C[C@H]1C[C@@H]2[C@H]([C@@H](O)C[C@@]3(C)[C@H]2CC[C@]3(O)C(=O)CSc2nc3ccccc3s2)[C@@]2(C)C=CC(=O)C=C12`, for which the figures for the Emax in [1], in series [3] and in [5] were 34%, 55% and 95%, respectively. Further, the IC50 is 39.1 nM on Glucocorticoid receptor [2] and 18 nM at Glucocorticoid receptor [4]. The same molecule yielded an EC50 on Glucocorticoid receptor [6] of 295 nM.

Turning to `C[C@]12CCC(=O)C=C1CC[C@H]1[C@@H]3CC[C@](O)(C(=O)CSc4nc5ccccc5s4)[C@@]3(C)C[C@H](O)[C@@]12F`, the Emax amounted to 21% in [1], 63% in [3] and 95% in series [5]. In addition, the IC50 on Glucocorticoid receptor [2] came out at 18.8 nM; against Glucocorticoid receptor [4] it was 4.6 nM. Moreover, the EC50 on Glucocorticoid receptor [6] was determined as 535 nM.

With `Cc1ccnc(SCC(=O)[C@@]2(OC(=O)c3ccco3)CC[C@H]3[C@@H]4CCC5=CC(=O)C=C[C@]5(C)[C@H]4[C@@H](O)C[C@@]32C)n1`, the Emax in [1] worked out at 24%; in series [3] it was 97%; in series [8], 43%; in [5], 98%. Besides, at Glucocorticoid receptor [2], the IC50 amounted to 2.1 nM. For the same molecule, the EC50 on Glucocorticoid receptor [6] turned out to be 13.3 nM.
